The values that follow come from publication PMC7255801, “Disease-associated mutations in the human TRPM3 render the channel overactive via two distinct mechanisms” (eLife, 2020).

Common to all, as to type: cell-based
Assay [1] addresses T1, human M2 muscarinic receptors co-expressed with hTRPM3_1325 V990M (Homo sapiens, UniProt P08172).
T1 construct: expressed in transfected cells; host or cells: Xenopus laevis oocytes (cRNA injection)
T1 sequence (P08172 1-466): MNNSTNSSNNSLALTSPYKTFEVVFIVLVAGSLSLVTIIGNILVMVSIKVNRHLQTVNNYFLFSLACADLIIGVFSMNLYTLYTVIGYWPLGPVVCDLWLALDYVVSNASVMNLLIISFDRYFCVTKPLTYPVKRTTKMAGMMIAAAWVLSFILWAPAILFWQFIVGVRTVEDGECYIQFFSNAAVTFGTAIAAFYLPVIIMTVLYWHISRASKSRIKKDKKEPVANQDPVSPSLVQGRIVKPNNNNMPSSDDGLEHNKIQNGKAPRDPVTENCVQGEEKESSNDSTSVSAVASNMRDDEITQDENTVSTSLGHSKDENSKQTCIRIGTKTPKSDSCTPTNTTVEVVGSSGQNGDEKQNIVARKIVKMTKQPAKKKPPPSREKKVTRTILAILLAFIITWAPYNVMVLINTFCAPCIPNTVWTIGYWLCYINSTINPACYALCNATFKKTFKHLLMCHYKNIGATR
In words: M2 muscarinic receptor inhibition of TRPM3 currents, oocytes, V990M mutant. The conditions noted are these: 5 μM ACh, 100 mV. The procedure:
(§1) Xenopus laevis oocytes were prepared as described earlier ([Badheka et al., 2015]). All animal procedures were approved by the Institutional Animal Care and Use Committee at Rutgers New Jersey Medical School. In brief, frogs were anesthetized in 0.25% ethyl 3-aminobenzoate methanesulfonate solution (MS222; Sigma-Aldrich); bags of ovaries were removed surgically from the anesthetized frogs. Individual oocytes were obtained by overnight digestion at 16°C in 0.2–0.3 mg/ml type 1A collagenase (Sigma-Aldrich), dissolved in a solution containing 82.5 mM NaCl, 2 mM KCl, 1 mM MgCl2, and […] HEPES, pH 7.4 (OR2 solution). The next day the collagenase containing solution was discarded and the oocytes were washed multiple times with OR2 solution. The oocytes were maintained in OR2 solution supplemented with 1.8 mM CaCl2, 100 IU/ml penicillin, and 100 μg/ml streptomycin at 16°C. cRNA was transcribed from the linearized human TRPM3 (hTRPM3) cDNA clone ([Grimm et al., 2003]), or its mutants in the pGEMSH vector using the mMessage mMachine kit (Thermo Fisher Scientific). cRNA (40 ng) was microinjected into individual oocytes, using a nanoliter-injector system (Warner Instruments). For combined injection of wild-type and mutant TRPM3 for Figures 4E–G, […] total cRNA was injected in a 1:1 ratio. […]

Assay [2] has as its target T2, human M2 muscarinic receptors co-expressed with wild-type hTRPM3_1325 (Homo sapiens, UniProt P08172).
T2 construct: expressed in transfected cells; host or cells: Xenopus laevis oocytes (cRNA injection)
T2 sequence (P08172 1-466): T1 sequence (P08172 1-466)
In words: M2 muscarinic receptor inhibition of TRPM3 currents, oocytes, wild type channel. As to conditions: read-out: Inhibition of TRPM3 currents induced by 50 μM PregS. How it is done: as §1

For another assay, the target named is T3, hTRPM3α2 V992M (Homo sapiens, UniProt Q9HCF6, V1015M).
T3 construct: host or cells: HEK293
The assay is described as follows: Intracellular Ca2+ assay (GCaMP6f) in 96-well plates, HEK293 cells, V992M mutant. The conditions noted are these: very high basal Ca2+ levels. How it is done:
(§2) Intracellular Ca^2+ measurements were performed using a Flexstation-3 96‐well plate reader with rapid well injection (Molecular Devices) as described earlier ([Hughes et al., 2019]) with some modifications. Briefly Human Embryonic Kidney 293 (HEK293) cells were purchased from American Type Culture Collection (ATCC), Manassas, VA, (catalogue number CRL-1573), RRID:CVCL_0045; cell identity was verified by STR analysis by ATCC. HEK293 cells were cultured in MEM supplemented with 10% FBS and 100 IU/ml penicillin plus 100 µg/ml streptomycin in 5% CO2 at 37°C. Additional cell authentication was not performed, but passage number of the cells was monitored, and cells were used up to passage number 25–30 from purchase, when a new batch of cells was thawed with low passage number; cells were tested for the lack of mycoplasma infection. HEK293 cells were transfected with hTRPM3α2-GFP, or its mutants (200 ng) and GCaMP6 (1 μg) using the Effectene reagent (Qiagen). […] GCaMP6 signal was measured at excitation wavelengths 485 nm and fluorescence emission was detected at 525 nm. Sampling interval was 0.86 s and four parallel reads were performed for each condition. […] For measurements at 37°C the MEM medium used to culture the cells was replaced with the measurement solution preheated to 37°C, and the plate was placed in the plate reader warmed to 37°C using its built-in temperature controller.

Another assay has as its target T4, hTRPM3α2 P1092Q (Homo sapiens, UniProt Q9HCF6, P1115Q).
T4 construct: host or cells: HEK293
The assay is described as follows: Intracellular Ca2+ assay (GCaMP6f) in 96-well plates, HEK293 cells, P1092Q mutant. The conditions noted are these: very high basal Ca2+ levels. How it is done: as §2

T3 sequence (Q9HCF6 1-1709 isoform Q9HCF6-5 V992M): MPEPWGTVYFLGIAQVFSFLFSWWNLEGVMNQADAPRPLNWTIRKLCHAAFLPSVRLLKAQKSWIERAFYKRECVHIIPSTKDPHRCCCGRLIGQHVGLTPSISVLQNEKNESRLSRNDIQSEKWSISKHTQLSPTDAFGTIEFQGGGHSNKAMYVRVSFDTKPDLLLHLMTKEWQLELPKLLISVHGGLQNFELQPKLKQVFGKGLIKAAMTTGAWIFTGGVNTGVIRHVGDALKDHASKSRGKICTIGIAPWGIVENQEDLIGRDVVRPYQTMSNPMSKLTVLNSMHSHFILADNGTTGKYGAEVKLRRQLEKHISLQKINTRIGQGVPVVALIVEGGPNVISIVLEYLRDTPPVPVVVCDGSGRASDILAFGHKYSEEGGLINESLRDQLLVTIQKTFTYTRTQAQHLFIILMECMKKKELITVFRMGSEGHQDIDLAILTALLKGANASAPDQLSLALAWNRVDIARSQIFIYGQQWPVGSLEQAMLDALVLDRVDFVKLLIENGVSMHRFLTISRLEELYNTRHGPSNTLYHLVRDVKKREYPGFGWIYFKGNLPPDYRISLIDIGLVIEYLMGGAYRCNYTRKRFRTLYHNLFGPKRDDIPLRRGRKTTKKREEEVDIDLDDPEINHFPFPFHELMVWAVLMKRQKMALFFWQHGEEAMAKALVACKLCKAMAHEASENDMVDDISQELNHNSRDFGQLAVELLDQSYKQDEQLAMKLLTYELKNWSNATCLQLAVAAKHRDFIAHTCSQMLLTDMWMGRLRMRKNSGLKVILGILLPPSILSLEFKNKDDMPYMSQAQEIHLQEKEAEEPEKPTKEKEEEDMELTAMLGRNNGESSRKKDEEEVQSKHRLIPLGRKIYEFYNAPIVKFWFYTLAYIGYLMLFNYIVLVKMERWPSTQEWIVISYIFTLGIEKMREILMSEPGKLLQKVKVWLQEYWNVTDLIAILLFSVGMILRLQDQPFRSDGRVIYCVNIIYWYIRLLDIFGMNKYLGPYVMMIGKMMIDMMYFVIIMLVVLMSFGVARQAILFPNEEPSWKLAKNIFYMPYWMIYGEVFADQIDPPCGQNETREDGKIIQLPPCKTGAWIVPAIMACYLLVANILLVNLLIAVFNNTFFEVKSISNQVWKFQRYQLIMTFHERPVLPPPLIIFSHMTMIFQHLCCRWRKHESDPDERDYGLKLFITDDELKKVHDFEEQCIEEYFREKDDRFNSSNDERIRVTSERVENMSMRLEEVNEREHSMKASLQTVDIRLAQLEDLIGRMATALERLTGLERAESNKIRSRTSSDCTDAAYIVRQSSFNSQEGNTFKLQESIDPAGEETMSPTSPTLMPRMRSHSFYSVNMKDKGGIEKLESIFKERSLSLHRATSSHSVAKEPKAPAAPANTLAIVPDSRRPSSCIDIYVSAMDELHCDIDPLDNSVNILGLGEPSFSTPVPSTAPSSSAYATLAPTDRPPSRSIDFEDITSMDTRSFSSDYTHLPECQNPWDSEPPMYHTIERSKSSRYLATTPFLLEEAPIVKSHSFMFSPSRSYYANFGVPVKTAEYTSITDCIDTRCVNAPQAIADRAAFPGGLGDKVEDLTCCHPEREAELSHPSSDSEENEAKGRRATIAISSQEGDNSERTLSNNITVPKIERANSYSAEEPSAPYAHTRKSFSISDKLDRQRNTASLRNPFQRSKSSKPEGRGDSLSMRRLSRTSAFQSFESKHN
T4 sequence (Q9HCF6 1-1709 isoform Q9HCF6-5 P1092Q): as the sequence (Q9HCF6 1-1709 isoform Q9HCF6-5 V992M) above, with M992V, P1092Q counted along it

Take `CC(=O)OCC[N+](C)(C)C` [ACh, acetylcholine]: in assay [1], the “Inhibition of TRPM3 currents induced by 50 μM PregS” value is reported as “essentially not inhibited”. The inhibition at 5 µM in assay [2] was approximately 50%.

pregnenolone sulfate [PregS]: the “Ca2+ response to agonist at 37°C” value on hTRPM3α2 V992M and on hTRPM3α2 P1092Q was “not further increased” in each case.

In general, inhibition refers to the percentage by which the read-out fell short of the control.
